Data: ChEMBL document CHEMBL1146950, “Matrix compare analysis discriminates subtle structural differences in a family of novel antiproliferative agents, diaryl-3-hydroxy-2,3,3a,10a-tetrahydrobenzo[b]cycylopenta[e]azepine-4,10(1H,5H)-diones” (2006)

Tests used:
NCI-H460 = experiment: Antiproliferative activity against NCI-H460 cell line; format: functional, Homo sapiens
HOP-62 = experiment: Antiproliferative activity against HOP62 cell line; format: functional, Homo sapiens; parameters: unit not given here
[1] = target: Vascular endothelial growth factor receptor 1 (Homo sapiens) (UniProt P17948); experiment: Inhibition of VEGFR1 at 10 uM in presence of 0.1 uM ATP
[2] = target: Receptor tyrosine-protein kinase erbB-2 (Homo sapiens) (UniProt P04626); experiment: Inhibition of ErbB2 at 10 uM in presence of 0.1 uM ATP
[3] = target: T1, Ephrin type-B receptor 4 (Homo sapiens) (UniProt P54760); experiment: Inhibition of EPHB4 at 10 uM in presence of 0.1 uM ATP
T1 sequence (whole entry): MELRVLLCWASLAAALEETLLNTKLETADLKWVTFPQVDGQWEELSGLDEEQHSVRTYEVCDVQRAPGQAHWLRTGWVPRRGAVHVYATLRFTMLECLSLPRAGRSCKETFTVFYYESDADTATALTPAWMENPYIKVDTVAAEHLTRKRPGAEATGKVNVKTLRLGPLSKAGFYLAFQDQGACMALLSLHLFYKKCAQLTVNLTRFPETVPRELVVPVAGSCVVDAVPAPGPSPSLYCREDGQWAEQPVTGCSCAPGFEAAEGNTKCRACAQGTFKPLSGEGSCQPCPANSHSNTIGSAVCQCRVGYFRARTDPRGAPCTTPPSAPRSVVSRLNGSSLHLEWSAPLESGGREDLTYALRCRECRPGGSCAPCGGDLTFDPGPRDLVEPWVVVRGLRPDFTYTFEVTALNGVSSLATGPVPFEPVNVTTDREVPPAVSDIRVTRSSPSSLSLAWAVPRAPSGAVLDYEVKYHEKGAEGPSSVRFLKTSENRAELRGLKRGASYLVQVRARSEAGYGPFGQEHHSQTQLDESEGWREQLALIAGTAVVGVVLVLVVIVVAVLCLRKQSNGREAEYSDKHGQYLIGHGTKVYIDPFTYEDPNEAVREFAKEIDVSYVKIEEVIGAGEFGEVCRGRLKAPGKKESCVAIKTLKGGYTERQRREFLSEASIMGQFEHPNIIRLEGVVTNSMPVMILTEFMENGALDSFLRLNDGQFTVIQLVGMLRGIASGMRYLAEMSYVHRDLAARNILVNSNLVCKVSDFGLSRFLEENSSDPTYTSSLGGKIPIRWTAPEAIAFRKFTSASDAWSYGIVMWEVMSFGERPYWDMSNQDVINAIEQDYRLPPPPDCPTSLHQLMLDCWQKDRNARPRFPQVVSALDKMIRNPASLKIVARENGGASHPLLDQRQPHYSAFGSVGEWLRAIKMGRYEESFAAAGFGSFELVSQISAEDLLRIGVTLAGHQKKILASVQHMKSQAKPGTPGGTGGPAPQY

[4] = target: Insulin-like growth factor 1 receptor (Homo sapiens) (UniProt P08069); experiment: Inhibition of IGF1R at 10 uM in presence of 0.1 uM ATP
[5] = target: Epidermal growth factor receptor (Homo sapiens) (UniProt P00533); experiment: Inhibition of EGFR at 10 uM in presence of 0.1 uM ATP
[6] = target: Angiopoietin-1 receptor (Homo sapiens) (UniProt Q02763); experiment: Inhibition of TIE2 at 10 uM in presence of 0.1 uM ATP
[7] = target: Vascular endothelial growth factor receptor 2 (Homo sapiens) (UniProt P35968); experiment: Inhibition of VEGFR2 at 10 uM in presence of 0.1 uM ATP
Chain of Vascular endothelial growth factor receptor 2 (Homo sapiens) (P35968 whole entry): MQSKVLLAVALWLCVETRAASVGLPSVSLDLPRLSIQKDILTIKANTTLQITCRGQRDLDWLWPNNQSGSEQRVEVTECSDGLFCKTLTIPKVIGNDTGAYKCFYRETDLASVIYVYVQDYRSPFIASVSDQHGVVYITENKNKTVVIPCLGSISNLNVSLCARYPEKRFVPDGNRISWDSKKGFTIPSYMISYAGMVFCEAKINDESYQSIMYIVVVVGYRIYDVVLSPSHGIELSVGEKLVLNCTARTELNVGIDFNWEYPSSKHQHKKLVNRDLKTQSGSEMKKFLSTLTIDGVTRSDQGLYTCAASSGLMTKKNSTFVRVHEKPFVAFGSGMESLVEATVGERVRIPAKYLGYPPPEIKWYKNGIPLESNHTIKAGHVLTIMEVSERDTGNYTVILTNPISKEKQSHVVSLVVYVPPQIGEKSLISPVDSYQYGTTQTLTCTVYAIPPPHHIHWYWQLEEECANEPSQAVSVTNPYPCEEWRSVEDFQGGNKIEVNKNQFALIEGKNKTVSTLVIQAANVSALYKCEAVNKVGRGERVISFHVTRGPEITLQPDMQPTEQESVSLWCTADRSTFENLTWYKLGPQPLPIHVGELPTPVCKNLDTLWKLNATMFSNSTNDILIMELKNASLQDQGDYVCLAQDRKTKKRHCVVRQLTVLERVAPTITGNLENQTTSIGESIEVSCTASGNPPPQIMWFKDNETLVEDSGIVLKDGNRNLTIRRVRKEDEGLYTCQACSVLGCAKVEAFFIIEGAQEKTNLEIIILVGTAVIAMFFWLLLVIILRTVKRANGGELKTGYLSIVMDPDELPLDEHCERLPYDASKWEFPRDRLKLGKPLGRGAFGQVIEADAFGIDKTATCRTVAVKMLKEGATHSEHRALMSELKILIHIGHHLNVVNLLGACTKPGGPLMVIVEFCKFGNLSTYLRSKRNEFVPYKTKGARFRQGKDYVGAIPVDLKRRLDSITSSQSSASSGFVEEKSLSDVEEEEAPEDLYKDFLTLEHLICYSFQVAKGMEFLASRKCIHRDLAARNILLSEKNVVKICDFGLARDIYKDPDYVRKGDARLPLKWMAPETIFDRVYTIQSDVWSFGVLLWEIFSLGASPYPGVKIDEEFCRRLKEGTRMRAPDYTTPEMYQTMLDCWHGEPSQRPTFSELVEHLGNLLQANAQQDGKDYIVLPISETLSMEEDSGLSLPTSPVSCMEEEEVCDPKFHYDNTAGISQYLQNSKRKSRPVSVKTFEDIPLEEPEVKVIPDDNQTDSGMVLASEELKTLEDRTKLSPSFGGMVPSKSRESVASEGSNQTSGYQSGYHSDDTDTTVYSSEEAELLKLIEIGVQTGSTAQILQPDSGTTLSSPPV

Chain of Insulin-like growth factor 1 receptor (Homo sapiens) (P08069 31-736 limits assumed): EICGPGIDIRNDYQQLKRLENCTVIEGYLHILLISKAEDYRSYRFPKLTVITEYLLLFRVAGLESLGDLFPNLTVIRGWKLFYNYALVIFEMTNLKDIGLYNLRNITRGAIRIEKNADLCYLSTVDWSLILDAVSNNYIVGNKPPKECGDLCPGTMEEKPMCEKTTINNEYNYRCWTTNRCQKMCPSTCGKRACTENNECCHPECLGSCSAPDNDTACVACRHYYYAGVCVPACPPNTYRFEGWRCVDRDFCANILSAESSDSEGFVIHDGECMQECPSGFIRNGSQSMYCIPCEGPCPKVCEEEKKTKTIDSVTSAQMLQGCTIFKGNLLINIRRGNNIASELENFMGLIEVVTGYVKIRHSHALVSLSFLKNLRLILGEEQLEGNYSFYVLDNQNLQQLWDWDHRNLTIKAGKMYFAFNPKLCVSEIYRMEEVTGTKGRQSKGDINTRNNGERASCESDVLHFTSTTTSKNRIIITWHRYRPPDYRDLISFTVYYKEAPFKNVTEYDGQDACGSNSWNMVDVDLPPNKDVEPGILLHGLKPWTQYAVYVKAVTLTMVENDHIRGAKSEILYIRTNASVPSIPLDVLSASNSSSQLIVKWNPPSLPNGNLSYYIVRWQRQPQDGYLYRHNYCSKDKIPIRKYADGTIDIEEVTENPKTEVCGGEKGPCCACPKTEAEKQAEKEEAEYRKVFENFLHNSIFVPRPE
Chain of Insulin-like growth factor 1 receptor (Homo sapiens) (P08069 741-1367 limits assumed): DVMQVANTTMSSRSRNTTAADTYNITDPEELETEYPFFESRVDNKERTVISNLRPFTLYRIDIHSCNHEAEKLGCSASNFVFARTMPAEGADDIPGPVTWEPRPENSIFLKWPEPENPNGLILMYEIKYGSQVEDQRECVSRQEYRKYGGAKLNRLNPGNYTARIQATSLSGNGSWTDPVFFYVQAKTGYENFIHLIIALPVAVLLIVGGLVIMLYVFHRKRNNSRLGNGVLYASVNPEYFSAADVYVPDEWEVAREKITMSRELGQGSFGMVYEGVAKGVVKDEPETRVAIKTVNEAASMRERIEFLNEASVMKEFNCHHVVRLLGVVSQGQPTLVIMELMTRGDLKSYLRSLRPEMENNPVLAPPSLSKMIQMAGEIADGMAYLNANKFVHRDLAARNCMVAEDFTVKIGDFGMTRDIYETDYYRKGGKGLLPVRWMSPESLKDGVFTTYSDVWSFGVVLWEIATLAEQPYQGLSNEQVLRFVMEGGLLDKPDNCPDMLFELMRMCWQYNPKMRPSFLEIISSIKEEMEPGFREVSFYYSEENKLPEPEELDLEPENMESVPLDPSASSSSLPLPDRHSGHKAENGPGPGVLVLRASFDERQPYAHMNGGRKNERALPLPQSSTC
Chain of Vascular endothelial growth factor receptor 1 (Homo sapiens) (P17948 whole entry): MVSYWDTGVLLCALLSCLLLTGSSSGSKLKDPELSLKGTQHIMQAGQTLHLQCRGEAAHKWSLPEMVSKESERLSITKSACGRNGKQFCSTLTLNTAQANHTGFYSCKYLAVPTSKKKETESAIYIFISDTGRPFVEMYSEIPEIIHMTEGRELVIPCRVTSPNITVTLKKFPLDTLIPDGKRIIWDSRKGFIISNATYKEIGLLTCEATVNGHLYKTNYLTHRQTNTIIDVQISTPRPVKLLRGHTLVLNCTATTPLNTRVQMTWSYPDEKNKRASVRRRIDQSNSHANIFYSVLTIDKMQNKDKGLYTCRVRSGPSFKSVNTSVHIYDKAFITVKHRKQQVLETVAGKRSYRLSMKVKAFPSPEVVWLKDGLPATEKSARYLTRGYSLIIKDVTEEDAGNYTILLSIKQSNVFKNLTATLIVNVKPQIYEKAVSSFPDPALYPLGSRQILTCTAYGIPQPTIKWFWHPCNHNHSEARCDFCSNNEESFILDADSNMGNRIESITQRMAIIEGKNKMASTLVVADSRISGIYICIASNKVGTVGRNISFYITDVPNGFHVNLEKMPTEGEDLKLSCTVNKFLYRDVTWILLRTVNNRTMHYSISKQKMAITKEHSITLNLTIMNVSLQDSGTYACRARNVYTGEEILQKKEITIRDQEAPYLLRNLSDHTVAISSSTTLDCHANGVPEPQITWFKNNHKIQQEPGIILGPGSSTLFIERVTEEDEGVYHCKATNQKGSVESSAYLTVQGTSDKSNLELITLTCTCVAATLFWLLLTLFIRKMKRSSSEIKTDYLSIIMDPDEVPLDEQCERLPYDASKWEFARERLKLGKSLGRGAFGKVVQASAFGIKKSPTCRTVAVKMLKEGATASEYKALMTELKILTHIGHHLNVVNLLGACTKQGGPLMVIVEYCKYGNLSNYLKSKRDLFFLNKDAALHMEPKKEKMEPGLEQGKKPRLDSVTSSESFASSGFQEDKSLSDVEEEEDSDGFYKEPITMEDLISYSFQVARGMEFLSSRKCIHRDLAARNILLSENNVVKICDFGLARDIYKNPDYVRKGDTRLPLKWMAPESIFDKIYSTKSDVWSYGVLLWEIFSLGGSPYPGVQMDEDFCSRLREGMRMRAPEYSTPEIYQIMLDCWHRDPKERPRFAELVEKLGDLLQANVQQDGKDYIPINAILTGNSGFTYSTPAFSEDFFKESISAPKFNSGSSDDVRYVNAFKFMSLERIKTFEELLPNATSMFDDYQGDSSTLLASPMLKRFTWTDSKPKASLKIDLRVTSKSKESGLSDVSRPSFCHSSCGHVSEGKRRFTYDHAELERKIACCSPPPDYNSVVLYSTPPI

SMILES | pGI50 (NCI-H460) [M] | pGI50 (HOP-62) | other results
O=C1c2ccccc2NC(=O)[C@H]2[C@H]1C[C@@H](c1ccc(Cl)cc1)[C@]2(O)c1ccccc1 | 5.4 | 5.6 | 
Cc1ccc([C@@]2(O)[C@H](c3ccc(Cl)cc3)C[C@H]3C(=O)c4ccccc4NC(=O)[C@@H]32)cc1 | 5.7 | 5.3 | 
Cc1ccc([C@@]2(O)[C@H](c3ccccc3)C[C@H]3C(=O)c4ccccc4NC(=O)[C@@H]32)cc1 | 4.7 | 5.4 | 
COc1ccc([C@@H]2C[C@H]3C(=O)c4ccccc4NC(=O)[C@@H]3[C@@]2(O)c2ccccc2)cc1 | 4.9 | 5.6 | 
Cc1ccc([C@@H]2C[C@H]3C(=O)c4ccccc4NC(=O)[C@@H]3[C@@]2(O)c2ccccc2)cc1 | 5.1 | 5.6 | 
O=C1c2ccccc2NC(=O)[C@H]2[C@H]1C[C@@H](c1ccccc1)[C@]2(O)c1ccccc1 | 5.4 | 5.4 | 
O=C1c2ccccc2NC(=O)[C@H]2[C@H]1[C@@H](c1ccccc1)C[C@]2(O)c1ccc2c(c1)OCO2 | 5.6 | 4.1 | 
Cc1ccc([C@@H]2C[C@H]3C(=O)c4ccccc4NC(=O)[C@@H]3[C@@]2(O)c2ccc(C)cc2)cc1 | 5.4 | 5.2 | 

Continued, in another order:

pGI50 (NCI-H460) [M] | SMILES | pGI50 (HOP-62) | other results
4.6 | O=C1c2ccccc2NC(=O)[C@H]2[C@H]1C[C@@H](c1cccc(Cl)c1)[C@]2(O)c1ccccc1 | 5.1 | 
6.7 | O=C1c2ccccc2NC(=O)[C@H]2[C@H]1[C@@H](c1ccccc1)C[C@]2(O)c1ccc2ccccc2c1 | >4 | 
5.7 | O=C1c2ccccc2NC(=O)[C@H]2[C@H]1[C@@H](c1ccccc1)C[C@]2(O)c1cccc(Cl)c1 | >4 | 
5 | COc1ccc([C@H]2C[C@](O)(c3cccc(Cl)c3)[C@H]3C(=O)Nc4ccccc4C(=O)[C@H]23)cc1 | >4 | 
5.2 | O=C1c2ccccc2NC(=O)[C@H]2[C@H]1[C@@H](c1cccc(Cl)c1)C[C@]2(O)c1ccccc1 | >4 | inhibition [1]: > 50%; inhibition [2]: > 50%; inhibition [3]: > 50%; inhibition [4]: > 50%; inhibition [5]: > 50%; inhibition [6]: > 50%; inhibition [7]: > 50%
5 | O=C1c2ccccc2NC(=O)[C@H]2[C@H]1[C@@H](c1ccc(Cl)cc1)C[C@]2(O)c1ccccc1 | >4 | 
5.1 | COc1ccc([C@H]2C[C@](O)(c3ccccc3)[C@H]3C(=O)Nc4ccccc4C(=O)[C@H]23)cc1 | >4 | 
